“Also recorded” adds a separate entry of the source.

The assay concerns subjects with chronic obstructive pulmonary disease and a low peak inspiratory flow rate. Put plainly: 28-day randomized, double-blind, double-dummy, parallel-group clinical study: once-daily revefenacin by nebulizer vs once-daily tiotropium by dry powder inhaler, lung function. The class given is in vivo, human. As to conditions: for Trough FEV1, LS Mean (SE) / Trough FVC, LS Mean (SE) / Trough IC, LS Mean (SE): change from baseline after 28 once-daily doses, TIO 18 μg dry powder inhaler, REV 175 μg nebulizer; for Trough FEV1, LS Difference (SE), REV vs TIO / Trough FVC, LS Difference (SE), REV vs TIO / Trough IC, LS Difference (SE), REV vs TIO: REV 175 μg nebulizer vs TIO 18 μg dry powder inhaler. Here is the method: A 28-day, randomized, double-blind, double-dummy, parallel-group study was conducted to compare once-daily revefenacin (175 μg of revefenacin in 3 mL of an isotonic, sterile aqueous solution containing sodium chloride, citric acid, sodium citrate, and water for injection at pH 5.0) delivered using a nebulizer (Trek S jet nebulizer (PARI, Midlothian, Va., USA) with once-daily tiotropium (18 μg/day) delivered using a dry powder inhaler (Spiriva HandiHaler, Boebringer Ingelheim Pharmaceuticals, Inc., Ridgefield, Conn., USA) on lung function in subjects with chronic obstructive pulmonary disease and a low peak inspiratory flow rate. Subjects with moderate to very severe COPD were allowed to use concurrent respiratory therapy with the exception of other inhaled anticholinergics. The primary endpoint of the study was the change from baseline in trough forced expiratory volume in one second (FEV1) after the 28th dose. Secondary endpoints included the change from baseline in peak FEV1, trough forced vital capacity (FVC), peak FVC and trough inspiratory capacity (IC) as well as the safety and tolerability of revefenacin 175 μg. Inclusion criteria were: age≥40 years; a smoking history≥10 pack years; a diagnosis of COPD (post-bronchodilator FEV1≤80% predicted and FEV/FVC≤70%); peak inspiratory flow rate (PIFR)<60 L/min as measured by IN-CHECK® DIAL device with resistance set to DISKUS® at screening.
In this study, revefenacin (REV) (administered using a nebulizer) or tiotropium (TIC)) (administered using a dry powder inhaler) was dosed once-daily for 28 days, Peak inspiratory flow rates (best of three) were determined at screening, randomization and end of study using the IN-CHECK® DIAL device with the resistance set to a resistance equal or similar to the resistance associated with the DISKUS® device. FEV1, FVC and IC were measured at baseline and/or peak on day 1 and on day 29. Safety was assessed via the collection of adverse events.

[1] abbreviates: % predicted FEV1 <50% subpopulation, PIFR <60 L/min.
The mark [2] stands for this setting: ITT population, all subjects PIFR <60 L/min.
Setting [3] is: ITT population, all subjects low PIFR, listed as revefenacin.
[4] abbreviates: subjects with low PIFR (<60 L/min) and percent predicted FEV1 <50%, listed as revefenacin.

For `C[N+]1(C)[C@@H]2C[C@@H](OC(=O)C(O)(c3cccs3)c3cccs3)C[C@H]1[C@@H]1O[C@@H]12` [TIO, tiotropium, reference compound], under setting [1], the “Trough FEV1, LS Mean (SE)” value is 27.5 (19.53); the “Trough FVC, LS Mean (SE)” value is listed as 46.7 (43.56); the “Trough IC, LS Mean (SE)” value is reported as 76.0 (40.40). Further, under setting [2], the “Trough FEV1, LS Mean (SE)” value is recorded as 47.3 (19.06); the “Trough FVC, LS Mean (SE)” value is 55.8 (36.62); the “Trough IC, LS Mean (SE)” value is 84.1 (40.02).

As to `CN(CCN1CCC(OC(=O)Nc2ccccc2-c2ccccc2)CC1)C(=O)c1ccc(CN2CCC(C(N)=O)CC2)cc1` [REV, 1-(2-{4-[(4-carbamoylpiperidin-1-yl)methyl]-N-methylbenzamido}ethyl) piperidin-4-yl N-([1,1′-biphenyl]-2-yl)carbamate], under setting [1], the “Trough FEV1, LS Difference (SE), REV vs TIO” value is 47.3 (21.76); the “Trough FVC, LS Difference (SE), REV vs TIO” value is 99.9 (48.75); the “Trough IC, LS Difference (SE), REV vs TIO” value is given as 13.7 (45.43); the “Trough FEV1, LS Mean (SE)” value is on record as 74.8 (20.85). Under setting [1], the “Trough FVC, LS Mean (SE)” value is recorded as 146.5 (46.69) and the “Trough IC, LS Mean (SE)” value is on record as 89.7 (42.85). Moreover, the “Trough IC, revefenacin by nebulizer compared to tiotropium by dry powder inhaler (in words)” value (ITT population or subpopulation with low PIFR and percent predicted FEV1 <50%, listed as revefenacin) is “No differences in trough IC were noted; also recorded: statistically significant difference in trough IC was not observed”. Where the note is “ITT population, PIFR <60 L/min”, the “Trough FEV1, LS Difference (SE), REV vs TIO” value is 15.7 (22.35); the “Trough FVC, LS Difference (SE), REV vs TIO” value was 69.6 (42.90); the “Trough IC, LS Difference (SE), REV vs TIO” value was −12.7 (47.38). Under setting [2], the “Trough FEV1, LS Mean (SE)” value was 63.0 (20.17); the “Trough FVC, LS Mean (SE)” value is 125.4 (38.75); the “Trough IC, LS Mean (SE)” value is 71.4 (42.33). For the same compound, under setting [3], the “Trough FEV1, revefenacin by nebulizer compared to tiotropium by dry powder inhaler (in words)” value is reported as “did not meet statistical significance nor clinical relevance; also recorded: statistically significant difference in trough FEV1 was not observed” and the “Trough FVC, revefenacin by nebulizer compared to tiotropium by dry powder inhaler (in words)” value is recorded as “did not meet statistical significance nor clinical relevance; also recorded: statistically significant difference in trough FVC was not observed”. Under setting [4], the “Trough FEV1, revefenacin by nebulizer compared to tiotropium by dry powder inhaler (in words)” value was “statistically significant and clinically relevant greater improvements; also recorded: statistically significant difference in trough FEV1 was observed”; the “Trough FVC, revefenacin by nebulizer compared to tiotropium by dry powder inhaler (in words)” value is “statistically significant and clinically relevant greater improvements; also recorded: statistically significant difference in trough FVC was observed”.

These data come from US20230255952A1, “METHODS FOR TREATING CHRONIC OBSTRUCTIVE PULMONARY DISEASE” (THERAVANCE BIOPHARMA R&D IP, LLC, priority 2018, published 2023).
